Laboratory results taken from US11739098B2 (BRISTOL-MYERS SQUIBB COMPANY, priority 2017, dated 2023).

Assays:
Type in all cases: cell-based
human TLR7 = molecular target: T1, human TLR7 (Homo sapiens, UniProt Q9NYK1); assay: TLR7 inhibition reporter assay (HEK-Blue cells, SEAP reporter, gardiquimod stimulation); settings: HEK-Blue cells overexpressing human TLR7, SEAP reporter, gardiquimod 7.5 μM
T1 construct: host or cells: HEK-Blue cells (HEK293-derived reporter line)
T1 sequence (Q9NYK1 27-1049): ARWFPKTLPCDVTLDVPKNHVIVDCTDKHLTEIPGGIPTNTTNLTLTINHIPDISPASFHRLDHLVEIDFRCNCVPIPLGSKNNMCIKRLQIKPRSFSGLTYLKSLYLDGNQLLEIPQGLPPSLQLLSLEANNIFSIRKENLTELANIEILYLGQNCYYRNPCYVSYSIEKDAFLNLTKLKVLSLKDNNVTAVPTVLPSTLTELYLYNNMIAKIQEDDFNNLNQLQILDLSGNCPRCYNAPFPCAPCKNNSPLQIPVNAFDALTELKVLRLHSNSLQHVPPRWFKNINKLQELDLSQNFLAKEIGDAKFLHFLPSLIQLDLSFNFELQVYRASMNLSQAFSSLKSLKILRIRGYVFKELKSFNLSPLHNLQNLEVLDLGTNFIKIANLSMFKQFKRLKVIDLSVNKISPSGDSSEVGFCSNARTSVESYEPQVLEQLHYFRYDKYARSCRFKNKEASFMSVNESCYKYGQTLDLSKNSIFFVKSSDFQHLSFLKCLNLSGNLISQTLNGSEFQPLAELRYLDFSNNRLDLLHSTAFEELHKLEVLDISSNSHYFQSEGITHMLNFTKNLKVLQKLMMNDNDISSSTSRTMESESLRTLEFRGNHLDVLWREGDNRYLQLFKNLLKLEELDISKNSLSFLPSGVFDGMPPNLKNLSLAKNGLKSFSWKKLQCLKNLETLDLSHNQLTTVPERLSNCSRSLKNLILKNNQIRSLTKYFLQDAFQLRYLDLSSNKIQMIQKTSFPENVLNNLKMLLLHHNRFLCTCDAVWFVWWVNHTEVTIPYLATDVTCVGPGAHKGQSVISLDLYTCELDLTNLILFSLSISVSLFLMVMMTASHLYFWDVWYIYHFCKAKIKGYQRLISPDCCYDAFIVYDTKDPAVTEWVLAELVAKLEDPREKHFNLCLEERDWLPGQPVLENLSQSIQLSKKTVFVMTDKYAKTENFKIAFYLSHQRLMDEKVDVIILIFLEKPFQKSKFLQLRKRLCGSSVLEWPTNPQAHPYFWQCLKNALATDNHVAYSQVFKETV
Outline: (§1)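 Read-out is SEAP activity in HEK-Blue detection medium after 22 h at 37 °C, converted to percent inhibition against agonist-plus-DMSO and reference-inhibitor controls. Cells saw compound (0.05 nM–50 μM, 30 min, room temperature) before gardiquimod 7.5 μM, R848 15.9 μM or ODN2006 5 nM for TLR7, TLR8 and TLR9, respectively.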

human TLR8 = molecular target: T2, human TLR8 (Homo sapiens, UniProt Q9NR97); assay: TLR8 inhibition reporter assay (HEK-Blue cells, SEAP reporter, R848 stimulation); settings: HEK-Blue cells overexpressing human TLR8, SEAP reporter, R848 15.9 μM
T2 construct: host or cells: HEK-Blue cells (HEK293-derived reporter line)
T2 sequence (Q9NR97 27-1041): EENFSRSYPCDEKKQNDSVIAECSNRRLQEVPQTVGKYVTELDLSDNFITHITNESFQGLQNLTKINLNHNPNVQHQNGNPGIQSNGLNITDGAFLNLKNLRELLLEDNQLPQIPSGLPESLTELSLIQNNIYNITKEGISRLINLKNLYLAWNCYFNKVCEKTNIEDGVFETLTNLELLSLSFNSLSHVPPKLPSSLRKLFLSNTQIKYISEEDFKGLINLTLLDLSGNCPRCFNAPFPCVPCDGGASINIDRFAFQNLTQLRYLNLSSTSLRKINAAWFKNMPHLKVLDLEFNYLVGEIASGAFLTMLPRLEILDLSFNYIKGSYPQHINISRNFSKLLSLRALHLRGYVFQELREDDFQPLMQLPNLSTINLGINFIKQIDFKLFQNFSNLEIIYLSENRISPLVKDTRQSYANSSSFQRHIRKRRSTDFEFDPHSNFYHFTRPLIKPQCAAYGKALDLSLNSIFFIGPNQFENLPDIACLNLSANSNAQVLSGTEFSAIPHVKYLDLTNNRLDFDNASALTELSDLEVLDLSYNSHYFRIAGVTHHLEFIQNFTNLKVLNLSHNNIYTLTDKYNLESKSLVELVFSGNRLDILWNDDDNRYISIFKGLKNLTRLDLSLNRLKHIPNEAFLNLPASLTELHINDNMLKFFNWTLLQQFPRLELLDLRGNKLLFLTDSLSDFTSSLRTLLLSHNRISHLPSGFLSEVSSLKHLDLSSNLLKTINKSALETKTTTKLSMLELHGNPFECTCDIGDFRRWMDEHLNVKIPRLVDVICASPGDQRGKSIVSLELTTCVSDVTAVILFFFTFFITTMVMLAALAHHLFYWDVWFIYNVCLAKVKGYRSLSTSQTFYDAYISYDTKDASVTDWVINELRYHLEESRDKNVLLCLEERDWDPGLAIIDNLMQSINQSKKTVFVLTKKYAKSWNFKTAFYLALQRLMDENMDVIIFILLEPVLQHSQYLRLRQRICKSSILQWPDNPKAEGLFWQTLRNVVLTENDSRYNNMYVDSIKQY
Outline: as §1

human TLR9 = molecular target: T3, human TLR9 (Homo sapiens, UniProt Q9NR96); assay: TLR9 inhibition reporter assay (HEK-Blue cells, SEAP reporter, ODN2006 stimulation); settings: HEK-Blue cells overexpressing human TLR9, SEAP reporter, ODN2006 5 nM
T3 construct: host or cells: HEK-Blue cells (HEK293-derived reporter line)
T3 sequence (Q9NR96 26-1032): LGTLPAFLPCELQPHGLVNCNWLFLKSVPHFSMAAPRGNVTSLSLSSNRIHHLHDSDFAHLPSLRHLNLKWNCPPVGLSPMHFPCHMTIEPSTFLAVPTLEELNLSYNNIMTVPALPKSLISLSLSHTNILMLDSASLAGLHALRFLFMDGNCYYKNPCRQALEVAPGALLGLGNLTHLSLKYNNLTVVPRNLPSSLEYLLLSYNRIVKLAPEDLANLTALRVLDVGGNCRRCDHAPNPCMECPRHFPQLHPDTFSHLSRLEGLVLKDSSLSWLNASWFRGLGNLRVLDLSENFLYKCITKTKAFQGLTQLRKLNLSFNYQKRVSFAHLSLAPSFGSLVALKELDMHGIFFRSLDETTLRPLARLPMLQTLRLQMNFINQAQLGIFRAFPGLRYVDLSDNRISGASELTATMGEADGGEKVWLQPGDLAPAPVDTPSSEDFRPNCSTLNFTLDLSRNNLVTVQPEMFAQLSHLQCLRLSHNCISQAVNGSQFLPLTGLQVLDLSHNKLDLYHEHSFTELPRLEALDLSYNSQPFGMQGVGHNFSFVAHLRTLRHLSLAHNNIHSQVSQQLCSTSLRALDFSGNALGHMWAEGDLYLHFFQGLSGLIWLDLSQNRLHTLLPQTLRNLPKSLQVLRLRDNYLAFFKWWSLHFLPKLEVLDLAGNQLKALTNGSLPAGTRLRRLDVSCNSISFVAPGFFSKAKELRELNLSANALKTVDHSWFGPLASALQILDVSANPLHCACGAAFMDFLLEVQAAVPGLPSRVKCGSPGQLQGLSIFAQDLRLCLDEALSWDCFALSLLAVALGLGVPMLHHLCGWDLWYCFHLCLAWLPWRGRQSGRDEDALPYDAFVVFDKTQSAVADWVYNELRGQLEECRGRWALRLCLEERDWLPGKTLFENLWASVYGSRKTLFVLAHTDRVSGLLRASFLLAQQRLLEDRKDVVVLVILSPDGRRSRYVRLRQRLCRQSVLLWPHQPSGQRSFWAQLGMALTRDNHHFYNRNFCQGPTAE
Outline: as §1

SMILES	IC50 (human TLR7)	IC50 (human TLR8)	IC50 (human TLR9)
CCc1c(-c2ccc3onc(N)c3c2)[nH]c2ccc(C3CCNCC3)cc12 [Example 95, 5-(3-ethyl-5-(piperidin-4-yl)-1H-indol-2-yl)benzo[d]isoxazol-3-amine]	1000 to 50000 nM	100 to 1000 nM	1000 to 50000 nM
CCc1c(-c2ccnc3[nH]ccc23)[nH]c2ccc(C3CCNCC3)cc12 [Example 236, 4-(3-ethyl-5-(piperidin-4-yl)-1H-indol-2-yl)-1H-pyrrolo[2,3-b]pyridine]	< 100 nM	< 100 nM	100 to 1000 nM
CC(C)c1c(-c2ccnc3[nH]ncc23)[nH]c2ccc(C3CCN(C4CCCNC4)CC3)cc12 (stereo not drawn) [Example 653, 4-(5-([1,3′-bipiperidin]-4-yl)-3-isopropyl-1H-indol-2-yl)-1H-pyrazolo[3,4-b]pyridine]	< 100 nM	< 100 nM	100 to 1000 nM
Cc1cc2cc(-c3[nH]c4ccc(C5CCN(CC(=O)N(C)C)CC5)cc4c3C(C)C)ccn2n1 [Example 323, 2-(4-(3-isopropyl-2-(2-methylpyrazolo[1,5-a]pyridin-5-yl)-1H-indol-5-yl)piperidin-1-yl)-N,N-dimethylacetamide]	100 to 1000 nM	1000 to 50000 nM	1000 to 50000 nM
Cc1cc(-c2[nH]c3ccc(C4CCN(CCCC(F)(F)F)CC4)cc3c2C(C)C)cn2nncc12 [Example 960, 6-(3-isopropyl-5-(1-(4,4,4-trifluorobutyl)piperidin-4-yl)-1H-indol-2-yl)-4-methyl-[1,2,3]triazolo[1,5-a]pyridine]	100 to 1000 nM	100 to 1000 nM	1000 to 50000 nM
COC(=O)c1c(-c2ccnc3[nH]ncc23)[nH]c2ccc(C3CCNCC3)cc12 [Example 174, methyl 5-(piperidin-4-yl)-2-(1H-pyrazolo[3,4-b]pyridin-4-yl)-1H-indole-3-carboxylate]	> 50000 nM	1000 to 50000 nM	1000 to 50000 nM
CNCCN1CCC(c2ccc3[nH]c(-c4ccnc5[nH]ncc45)c(C(C)C)c3c2)C(F)C1 (stereo not drawn) [Example 677, 2-(3-fluoro-4-(3-isopropyl-2-(1H-pyrazolo[3,4-b]pyridin-4-yl)-1H-indol-5-yl)piperidin-1-yl)-N-methylethan-1-amine]	< 100 nM	< 100 nM	100 to 1000 nM
CNCCN1CCC(c2ccc3[nH]c(-c4ccc5c(ccn5C)c4)c(C)c3c2)CC1 [Example 672, 2-(4-(1′,3-dimethyl-1H,1′H-[2,5′-biindol]-5-yl)piperidin-1-yl)-N-methylethan-1-amine]	> 50000 nM	> 3130 nM	100 to 1000 nM
CC(C)c1c(-c2cc3cn[nH]c3cn2)[nH]c2ccc(C3CCNCC3)cc12 [Example 179, 5-(3-isopropyl-5-(piperidin-4-yl)-1H-indol-2-yl)-1H-pyrazolo[3,4-c]pyridine]	< 100 nM	< 100 nM	1000 to 50000 nM
CNCC(=O)N1CCC(c2ccc3[nH]c(-c4cc(F)c5nccn5c4)c(C(C)C)c3c2)CC1 [Example 547, 1-(4-(2-(8-fluoroimidazo[1,2-a]pyridin-6-yl)-3-isopropyl-1H-indol-5-yl)piperidin-1-yl)-2-(methylamino)ethan-1-one]	< 100 nM	100 to 1000 nM	100 to 1000 nM
CNCCN1CCC(c2ccc3[nH]c(-c4ccc5[nH]ccc5c4)c(C)c3c2)CC1 [Example 667, N-methyl-2-(4-(3-methyl-1H,1′H-[2,5′-biindol]-5-yl)piperidin-1-yl)ethan-1-amine]	1000 to 50000 nM	1000 to 50000 nM	100 to 1000 nM
COc1c(C)c(-c2[nH]c3ccc(C4CCN(CC(=O)N(C)C)CC4)cc3c2C(C)C)nn2ncnc12 [Example 282, 2-(4-(3-isopropyl-2-(8-methoxy-7-methyl-[1,2,4]triazolo[1,5-b]pyridazin-6-yl)-1H-indol-5-yl)piperidin-1-yl)-N,N-dimethylacetamide]	< 100 nM	< 100 nM	1000 to 50000 nM
Cc1c(-c2ccnc3[nH]ncc23)[nH]c2ccc(C3CCNCC3)cc12 [Example 231, 4-(3-methyl-5-(piperidin-4-yl)-1H-indol-2-yl)-1H-pyrazolo[3,4-b]pyridine]	100 to 1000 nM	100 to 1000 nM	1000 to 50000 nM
Cc1cn2cc(-c3[nH]c4ccc(C5CCN(C(=O)CN(C)C)CC5)cc4c3C(C)C)cc(C(F)(F)F)c2n1 [Example 511, 2-(dimethylamino)-1-(4-(3-isopropyl-2-(2-methyl-8-(trifluoromethyl)imidazo[1,2-a]pyridin-6-yl)-1H-indol-5-yl)piperidin-1-yl)ethan-1-one]	< 100 nM	100 to 1000 nM	100 to 1000 nM
Cc1ccc(-c2[nH]c3ccc(C4CCNCC4)cc3c2C(C)C)c2ncnn12 [Example 152, 8-(3-isopropyl-5-(piperidin-4-yl)-1H-indol-2-yl)-5-methyl-[1,2,4]triazolo[1,5-a]pyridine]	< 100 nM	< 100 nM	1000 to 50000 nM
